# Laboratory results reported in patent US9422265B2, “Process for the preparation of 3-(3-chloro-1H-pyrazol-1-yl)pyridine” (Dow AgroSciences LLC, priority 2014, dated 2016).
# Assays:
# [1] = tested on: Green Peach Aphid (Myzus persicae) (MYZUPE); test: Bioassay on Green Peach Aphid (GPA), cabbage seedling foliar spray; format: in vivo; details: 72 h, 200 ppm spray on cabbage seedlings, graded after three days, live aphids, Abbott's correction, read-out: MYZUPE rating (% Control of Mortality)
# Experimental: Example A Bioassays on Green Peach Aphid (“GPA”) (Myzus persicae) (MYZUPE.)
# Several molecules disclosed herein were tested against GPA using procedures described below.
# Cabbage seedling grown in 3-in pots, with 2-3 small (3-5 cm) true leaves, were used as test substrate. The seedlings were infested with […] (wingless adult and nymph stages) one day prior to chemical application. Four posts with individual seedlings were used for each treatment. Test compounds (2 mg) were dissolved in 2 mL of acetone/methanol (1:1) solvent, forming stock solutions of 1000 ppm test compound. The stock solutions were diluted 5× with 0.025% Tween 20 in water to obtain the solution at 200 ppm test compound. A hand-held aspirator-type sprayer was used for spraying a solution to both sides of the cabbage leaves until runoff. Reference plants (solvent check) were sprayed with the diluent only containing 20% by volume acetone/methanol (1:1) solvent. Treated plants were held in a holding room for three days at approximately 25° C. and ambient relative humidity (RH) prior to grading. Evaluation was conducted by counting the number of live aphids per plant under a microscope. Percent Control was measured by using Abbott's correction formula (W. S. Abbott, “A Method of Computing the Effectiveness of an Insecticide” J. Econ. Entomol 18 (1925), pp. 265-267) as follows. […]
# [2] = tested on: Sweetpotato Whitefly Crawler (Bemisia tabaci) (BEMITA); test: Bioassay on Sweetpotato Whitefly Crawler, cotton plant foliar spray; format: in vivo; details: 200 ppm spray on cotton plants, graded after 8-9 days, live nymphs, Abbott's correction, read-out: BEMITA rating (% Control of Mortality)
# Description: Example B Bioassays on Sweetpotato Whitefly Crawler (Bemisia tabaci) (BEMITA.)
# Cotton plants grown in 3-inch pots, with 1 small (3-5 cm) true leaf, were used at test substrate. The plants were placed in a room with whitefly adults. Adults were allowed to deposit eggs for 2-3 days. After a 2-3 day egg-laying period, plants were taken from the adult whitefly room. Adults were blown off leaves using a hand-held Devilbliss sprayer (23 psi). Plants with egg infestation (100-300 eggs per plant) were placed in a holding room for 5-6 days at 82° F. and 50% RH for egg hatch and crawler stage to develop. Four cotton plants were used for each treatment. Compounds (2 mg) were dissolved in 1 mL of acetone solvent, forming stock solutions of 2000 ppm. The stock solutions were diluted 10× with 0.025% Tween 20 in water to obtain a test solution at 200 ppm. A hand-held Devilbliss sprayer was used for spraying a solution to both sides of cotton leaf until runoff. Reference plants (solvent check) were sprayed with the diluent only. Treated plants were held in a holding room for 8-9 days at approximately 82° F. and 50% RH prior to grading. Evaluation was conducted by counting the number of live nymphs per plant under a microscope.
Compound,mortality at 200 ppm [1],mortality at 200 ppm [2]
"CCN(C(=O)CCSCCC(F)(F)F)c1cn(-c2cccnc2)nc1Cl [Compound 2-11, N-(3-chloro-1-(pyridin-3-yl)-1H-pyrazol-4-yl)-N-ethyl-3-((3,3,3-trifluoropropyl)thio)propanamide]",80 to 100%,80 to 100%
"CCN(C(=O)CC[S+]([O-])CCC(F)(F)F)c1cn(-c2cccnc2)nc1Cl (stereo not shown) [Compound 2-12, N-(3-chloro-1-(pyridin-3-yl)-1H-pyrazol-4-yl)-N-ethyl-3-((3,3,3-trifluoropropyl)sulfoxo)propanamide]",80 to 100%,80 to 100%
